The source of these data is patent publication US11590075B2, “Methods and products for reducing adhesions” (priority 2017, dated 2023).

The subject of series [1] is primary fibroblasts. Kind of series: Alamar Blue proliferation assay. Format: cell-based. The procedure:
Alamar Blue Proliferation Assay Fibroblasts were seeded at a density of 2×10^4 cells/well in 96 well plates (Nuns, Sydney Australia) and cultured at 37° C., 5% CO2 for 24 hours Media was aspirated and cells were washed twice in phosphate buffered saline. The following treatments were used: • (i) No treatment control (NTC)—DMEM (Invitrogen, Sydney Australia) containing Penicillin at 500 U/mL, Streptomycin and Amphotericin B (Sigma-Aldrich, MO) at 0.5 mg/mL, 10% Fetal Bovine Serum. • (ii) 5 mM of Deferiprone dissolved in control media. • (iii) 10 mM Deferiprone dissolved in control media. • (iv) 20 mM Deferiprone dissolved in control media. Readings were taken at 4, 24, 48 and 72 hours. At each time point media was aspirated and fresh control media with 10% Alamar Blue was added and incubated in the dark for 6 hours at 37° C. 5% CO2. The plate was then read at 570 and 595 nm according to manufacturer's instructions. Fibroblasts proliferation was measured using the Alamar Blue reduction assay. The assay is based on use of resazurin, a non-toxic, cell permeable compound which is blue in colour and non-fluorescent. Resazurin is reduced to resorufin a compound that is red in colour and highly fluorescent. Viable cells continuously convert resazurin to resorufin, increasing the overall fluorescence and colour of the media surrounding cells.

Series [2] deals with primary human nasal epithelial cells (HNECs). Kind of series: Cytotoxicity, LDH assay, HNECs. Conditions: exposure 1 h, 2 h, 3 h, 4 h, 5 h and 6 h; deferiprone 1, 5, 10, 20 mM (p>0.05); Triton X-100 0.5%. Format: cell-based. An excerpt:
Primary human nasal epithelial […] harvested from nasal polyps by gentle brushing in a method described by Ramezanpour et al. (2016) “Th17 cytokines disrupt the airway mucosal barrier in chronic rhinosinusitis” Mediators of inflammation; 2016: 9798206. doi: 10.1155/2016/9798206. Extracted cells were suspended in Bronchial Epithelial Growth Media (BEGM, CC-3170, Lonza, Walkersville, Md., USA), supplemented with 2% Ultroser G (Pall Corporation, Port Washington, N.Y., USA). The cell suspension was depleted of macrophages using anti-CD68 (Dako, Glostrup, Denmark) coated culture dishes, and HNECs were maintained with B-ALITM growth medium (Lonza, Walkersville, USA) in collagen coated flasks (Thermo Scientific, Walthman, Mass., USA) in a cell incubator at 37° C. with 5% CO2. Primary human fibroblasts or epithelial cells were grown in DMEM and BEGEM (Lonza, Walkersville, USA) medium respectively. Cells were maintained in a fully humidified incubator with 5% CO2 at 37° C. prior to cytotoxicity studies. […] The optical density (OD) was measured at 490 Mil on a FLUOstar OPTIMA plate reader (BMG Labtech, Ortenberg, Germany), Cell culture studies were performed as three independent experiments.

Series [3] relates to IL-6 production in human nasal epithelial cells. Kind of series: IL-6 ELISA, HNECs with Poly (I:C). The series is classed as cell-based. Conditions: 24 hours, in the presence of Poly (I:C) LMW. The method, then:
(§1) Supernatants were collected from HNECs and fibroblasts after 24 hours of exposure with different concentrations of deferiprone in the presence/absence of the pro-inflammatory agent Poly (I:C) (10 μg/ml) or IL-1β (10 ng/ml Sigma, Saint Louis, USA) respectively. Interleukin-6 (IL-6) protein levels were estimated with an ELISA kit using rat anti-human IL-6 antibodies (BD Biosciences, New Jersey, USA), according to the manufacturer's instructions. All measurements were performed in duplicate using a FLUOstar OPTIMA plate reader (BMG Labtech, Ortenberg, Germany). The tissue sample concentration was calculated from a standard curve and corrected for protein concentration.

Series [4] deals with primary human nasal fibroblasts. Description: Wound healing (migration) scratch assay, fibroblasts. The series is classed as cell-based. Conditions: for wound healing of primary fibroblasts: after 44 hours. The method, then: In the fibroblast wound closure assay, fibroblasts were seeded in 24 well plates, stained with CellTrace™ Violet (Invitrogen/Life Technologies, USA) and allowed to get 80% confluent in 24 hours. A straight vertical scratch was made down through the fibroblast and HNEC-ALI cell monolayers by using a 200 μl pipette tip. The media and cell debris was aspirated carefully and culture media with different concentrations of deferiprone (1 mM, 5 mM, 10 mM, 20 mM) or media only (negative control) added to each well for 72 hours. At time zero, cells were treated with 1 μg/ml mitomycin (Accord Healthcare Inc, NDC 16729-108-11, USA) to inhibit cell proliferation. The wound closure (cell migration) was recorded using time-lapse LSM700 confocal scanning laser microscopy (Zeiss Microscopy, Germany), with an image recorded every 4 hours in a temperature and CO2 controlled chamber. Data was analysed using Image.

For series [5] the test system is unchanged. Description: Cytotoxicity, LDH assay, nasal fibroblasts. The series is classed as cell-based. Conditions: exposure 1 h, 2 h, 3 h, 4 h, 5 h and 6 h; deferiprone 1, 5, 10, 20 mM (p>0.05); Triton X-100 0.5%. The method, then: Sinonasal tissue was biopsied from paranasal sinus mucosa and transferred to a 6-well culture plate with 2 ml Dulbecco's Modified Eagle's medium (DMEM, Invitrogen, UK) supplemented with 1:100 L-glutamine, 10% Fetal bovine serum (FBS, Sigma-Aldrich), 1:100 ascorbic acid 2-phosphate, and 1:100 penicillin streptomycin (Gibco, Life Technologies) and incubated. Every 2-3 days, the tissue was washed gently with 1 ml phosphate-buffered saline (PBS) and medium was replaced with 1.5 ml fresh medium until fibroblasts became confluent after approximately 2 weeks. Once confluent, fibroblasts were washed with 2 ml PBS, trypsinized and collected followed by centrifugation at 400×g for 8 minutes. The supernatant was removed and pellet resuspended in 1 ml PBS along with 50 μl Dynabeads Epithelial Enrich (Invitrogen, USA). The tube was wrapped in parafilm and placed on a rotor mixer for 20 minutes at room temperature (RT). Supernatant containing fibroblasts were transferred to a T25 tissue culture flask and the tube containing the remaining beads discarded Primary human fibroblasts or epithelial cells were grown in DMEM and BEGEM (Lonza, Walkersville, USA) medium respectively. […] The optical density (OD) was measured at 490 Mil on a FLUOstar OPTIMA plate reader (BMG Labtech, Ortenberg, Germany), Cell culture studies were performed as three independent experiments.

Series [6] has as its system type I collagen release in primary human nasal fibroblasts. Description: Collagen assay (procollagen type I C-peptide ELISA). As to conditions: different concentrations (1, 5, 10, 20 mM). The series is classed as cell-based. The method, then: Primary human nasal fibroblasts were seeded in 24-well tissue-culture plates at a density of 5×10^5 grown in DMEM until confluent. […] Following treatment, the supernatant was collected and the protein level of type I collagen was measured with a procollagen type I C-peptide ELISA kit (Takara Bio Inc, Otsu, Japan). Experimental procedures followed the manufacturer's instruction. Briefly, 20 μl of culture medium and 100 μl of the antibody-POD conjugate solution were sequentially added into microtiter plates and reacted for 3 hours at 37° C. After 4× washing with washing buffer solution (1×PBST), 100 μl of the substrate solution was added and incubated for 15 minutes at RT. Finally, the stop solution (100 μl) was added and corresponding absorbance was recorded at 450 nm using a FLUOstar OPTIMA plate reader (BMG Labtech, Ortenberg, Germany).

Series [7] concerns HNEC-ALI cultures. Description: Wound healing (migration) scratch assay, HNEC-ALI. Format: cell-based, human. As to conditions: 1, 5, 10, 20 mM for up to 68 hours; untreated healed by 68 hours. The method, then:
HNECs were grown until 80% confluent then harvested for seeding onto collagen coated 6.5 mm permeable Transwell plates (BD Biosciences, San Jose, Calif., USA) at a density of 5×10^4 cells per well. Cells were maintained with B-ALI™ growth medium for 2-3 days in a cell incubator at 37° C. with 5% CO2. On day 3 after seeding, the apical media was removed and the basal media replaced with B-ALI™ differentiation media, exposing the apical cell surface to the atmosphere. Human nasal epithelial cultures at air liquid interface (HNEC-ALI) were maintained for a minimum of 14 days for development of tight junctions and 28 days for cilia generation. In the fibroblast wound closure assay, fibroblasts were seeded in 24 well plates, stained with CellTrace™ Violet (Invitrogen/Life Technologies, USA) and allowed to get 80% confluent in 24 hours. A straight vertical scratch was made down through the fibroblast and HNEC-ALI cell monolayers by using a 200 μl pipette tip. […] The wound closure (cell migration) was recorded using time-lapse LSM700 confocal scanning laser microscopy (Zeiss Microscopy, Germany), with an image recorded every 4 hours in a temperature and CO2 controlled chamber. Data was analysed using Image.

Series [8] concerns IL-6 production in nasal fibroblast cells. Description: IL-6 ELISA, nasal fibroblasts with IL-1β. Format: cell-based, human. Conditions: in the presence or absence of IL-13 (so in the source), after 24 hours. The method, then: as §1
Series [9] has as its system primary fibroblasts. Kind of series: Fibroblast wound healing protocol (gap closure, migration). Format: cell-based. The method, then:
1. Fibroblast Wound Healing Protocol Fibroblasts were stained with CellTrace Proliferation Kit (Thermo-Fisher Scientific, Life Technologies, CA) and prepared in a suspension of 3×10^5 cells/mL of DMEM (Invitrogen, Sydney Australia) containing Penicillin at 500 U/mL, Streptomycin and Amphotericin B (Sigma-Aldrich, MO) at 0.5 mg/mL, 10% Fetal Bovine Serum. 70 uL of this suspension were seeded into each chamber inserts of the Ibidi culture-insert 24 (Ibidi GmbH, Munich, Germany) and cultured for 12 hours at 37° C., 5% CO2. The inserts were then removed with sterile forceps and cells washed twice in phosphate buffered saline. The following treatments were used: • (i) No treatment control (NTC) DMEM (Invitrogen, Sydney Australia) containing Penicillin at 500 U/mL, Streptomycin and Amphotericin B (Sigma-Aldrich, MO) at 0.5 mg/mL 10% Fetal Bovine Serum. • (ii) 5 mM of Deferiprone dissolved in control media. • (iii) 10 mM Deferiprone dissolved in control media. • (iv) 20 mM Deferiprone dissolved in control media. The effects on cells were recorded in real time at 37° C., 5% CO2 and imaged at intervals of 0, 8, 24 and 48 hours using Zeiss LSM700 Confocal (Carl Zeiss, Oberkochen, Germany) until gap closure. Image properties: DAPI blue signal; 405 nm laser; line step 2; line average 4; bit 12; zoom 0.5; 512×512 pixels; time series.

With `Cc1c(O)c(=O)ccn1C` [deferiprone, 3-hydroxy-1,2-dimethylpyridin-4(1H)-one], the “inhibition of fibroblast proliferation (Alamar Blue)” value in series [1] (5, 10, 20 mM deferiprone, readings at 4, 24, 48, 72 hours, 2-way ANOVA) is “significant dose dependent effect”. In addition, the “time course of inhibition of proliferation” value in series [1] (occurred over a period of at least 24 to 72 hours) is “time dependent”. Further, in series [2], the “LDH release (cytotoxicity) in HNECs” value is on record as “no significant increase in LDH release”. Also, the “reduction of IL-6 protein concentrations in HNECs” value stood at 80% in [3] (10 mM, p=0.001) and 96% in [3] (20 mM, p=0.0001). In addition, the “wound healing of primary fibroblasts” value in series [4] (5 mM) and in series [4] (10 mM) was “significantly delayed healing” in each case. The “wound closure of primary fibroblasts” value in series [4] (20 mM, at 28 h and all time points thereafter, untreated closed after 44 hours) is “significant delay in wound closure”. The “LDH release (cytotoxicity) in fibroblasts” value in series [5] was “no significant increase in LDH release”. For the same molecule, the “collagen protein concentrations in supernatants of fibroblast monolayers” value in series [6] (24 hours as printed, absence of ASC, p<0.0001) was “significantly reduced collagen protein concentrations”. Also, in series [6] (with ASC), the “collagen secretion in the presence of L-Ascorbic acid-2 phosphate (ASC)” value was “significantly inhibited collagen secretion in a dose dependent manner”. The “wound healing in HNEC-ALI cultures” value in [7] is “did not show any significant delay in wound healing”. Moreover, the “secretion of IL-6 in nasal fibroblasts” value in [8] is recorded as “did not alter the secretion of IL-6”. In series [9] (20 mM deferiprone, up to 48 hours, control cells close the void after 48 hours), the “closure of void in fibroblasts” value is “minimal closure”. In addition, the fibroblast migration entry in series [9] (within 48 hours, 5, 10, 20 mM) is listed as “inhibited fibroblast migration”.
